From patent publication US7176164B2, “1,3-selenazolin derivatives and process for preparing the same” (Gifu University, priority 2001, dated 2007)

Columns and labels:
[1] = system: human HT-1080 fibrosarcoma cells; assay: growth inhibitory action against human HT-1080 fibrosarcoma cells (crystal violet method); format: cell-based; conditions: HT-1080 cells; for growth inhibitory action on HT-1080 fibrosarcoma cells (in words): 24 hours, summary of Table 1; for IC50: Homo sapiens, 24 hours culture with test drug, DMEM/F12 with 0.1% bovine serum albumin
Experimental: The growth inhibitory action of the selenazolin derivatives of chemical formulas 4 through 12 against human HT-1080 fibrosarcoma cells was investigated. HT-1080 fibrosarcoma cells growing in Eagle's Minimum Essential Medium (EMEM) containing 10% fetal calf serum within an incubator having an atmosphere of 5% CO2 and 95% air maintained at a temperature of 37 degrees Celsius were inoculated into a 96-well plate at the rate of 1×10^4 cells/well. After 48 hours, the medium was replaced with Dulbecco's Modified Eagle's Medium (DMEM)/F12 medium containing 0.1% bovine serum albumin, and the test drugs at each concentration (0.1 μM, 100 μM) were added, followed by culturing for 24 hours. Growth inhibitory action on human HT-1080 fibrosarcoma cells was determined from the staining density following staining using the crystal violet method.

protein kinases = assay: simultaneous detection of the activity of a plurality of protein kinases on a single gel (lysate of v-src transformed NIH3T3 cells, labeled ATP, SDS-PAGE and autoradiography); format: biochemical; conditions: supernatant of v-src transformed NIH3T3 cells; relative to rottlerin, typically used as a protein kinase inhibitor
Experimental: Action relative to a plurality of protein kinases was investigated in accordance with the method for simultaneous detection of the activity of a plurality of protein kinases on a single gel as described in Anal. Biochem. 212:106–110, 1993.
More specifically, NIH3T3 cells transformed with v-src were disintegrated with a hypotonic buffer and denucleated by gentle centrifugation. Various types of […] (including 1 μM PMA (phorbolmyristate acetate), 20 μM cyclic adenosine-3′,5′-monophosphate (cAMP)) were then added to the centrifuged supernatant. Moreover, 3-isopropyl-2-isopropylimino-1,3-selenazolidin-4-one of chemical formula 4 and labeled adenosine triphosphate (ATP) were added and the mixture was allowed to react. After stopping the reaction, the phosphorylated protein was analyzed by SDS-PAGE and autoradiography.

| SMILES | growth inhibitory action on HT-1080 fibrosarcoma cells (in words) [1] | IC50 [1] [µM] | inhibitory activity compared with rottlerin (protein kinases) [times] |
| --- | --- | --- | --- |
| CC(C)N=C1[Se]CC(=O)N1C(C)C [Chemical Formula 4, 3-isopropyl-2-isopropylimino-1,3-selenazolidin-4-one] | potent growth inhibitory action | 3.2 | ≥ 20 |
| O=C1C[Se]C(=NC2CCCCC2)N1C1CCCCC1 [Chemical Formula 5, 3-cyclohexyl-2-cyclohexylimino-1,3-selenazolidin-4-one] |  | > 100 |  |
| CC(C)N=C1[Se]C(C)C(=O)N1C(C)C (stereo not shown) [Chemical Formula 6, 3-isopropyl-2-isopropylimino-5-methyl-1,3-selenazolidin-4-one] |  | 89 |  |
| CCC1[Se]C(=NC(C)C)N(C(C)C)C1=O (stereo not shown) [Chemical Formula 7, 3-isopropyl-2-isopropylimino-5-ethyl-1,3-selenazolidin-4-one] | potent growth inhibitory action | 2.5 |  |
| CC(C)N=C1[Se]C(C)(C)C(=O)N1C(C)C [Chemical Formula 8, 3-isopropyl-2-isopropylimino-5,5-dimethyl-1,3-selenazolidin-4-one] |  | 98 |  |
| CC(C)N=C1[Se]C(c2ccccc2)C(=O)N1C(C)C (stereo not shown) [Chemical Formula 9, 3-isopropyl-2-isopropylimino-5-phenyl-1,3-selenazolidin-4-one] |  | > 100 |  |
| CC(C)(C)N=C1[Se]CC(=O)N1C(C)(C)C [Chemical Formula 10, 3-t-butyl-2-t-butylimino-1,3-selenazolidin-4-one] | potent growth inhibitory action | 4.5 |  |
| Cc1ccc(N=C2[Se]CC(=O)N2c2ccc(C)cc2)cc1 [Chemical Formula 11, 3-p-tolyl-2-p-tolylimino-1,3-selenazolidin-4-one] |  | > 100 |  |
| Cc1ccccc1N=C1[Se]CC(=O)N1c1ccccc1C [Chemical Formula 12, 3-o-tolyl-2-o-tolylimino-1,3-selenazolidin-4-one] |  | 75 |  |
